# Measurements: US9226501B2, “Pesticidal compositions and processes related thereto” (Dow AgroSciences LLC, priority 2012, dated 2016)
# Experiments:
# [1] = tested on: Beet Armyworm (BAW) (spodoptera exigua); assay: Bioassay on beet armyworm (BAW), 128-well diet tray assay; format: in vivo; settings: for pest or weed control at 50 µg/cm2: Spodoptera exigua, 168 h, % mortality, second instar larvae, 50 μg/cm^2 on artificial diet, five to seven days, 25° C., read-out: BAW Rating; for BAW Rating: Table 5, prophetic compounds subsequently exemplified, beet armyworm
# Method: (§1) Certain molecules disclosed in this document were tested against BAW, CEW and CL using procedures described in the following examples. In the reporting of the results, the “BAW & CEW & CL Rating Table” was used (See Table Section).
# Bioassays on BAW were conducted using a 128-well diet tray assay. One to five second instar BAW larvae were placed in each well (3 mL) of the diet tray that had been previously filled with 1 mL of artificial diet to which 50 μg/cm^2 of the test compound (dissolved in 50 μL of 90:10 acetone-water mixture) had been applied (to each of eight wells) and then allowed to dry. Trays were covered with a clear self-adhesive cover, and held at 25° C., 14:10 light-dark for five to seven days. Percent mortality was recorded for the larvae in each well; activity in the eight wells was then averaged. The results are indicated in the tables entitled “Table 3: Assay Results Part 1” and “Table 4: Assay Results Part 2” (See Table Section).
# [2] = tested on: Cabbage Looper (CL) (Trichoplusia ni); assay: Bioassay on cabbage looper (CL), 128-well diet tray assay; format: in vivo; settings: for pest or weed control at 50 µg/cm2: Trichoplusia ni, 168 h, % mortality, second instar larvae, 50 μg/cm^2 on artificial diet, five to seven days, 25° C., read-out: CL Rating; for CL Rating: Table 5, prophetic compounds subsequently exemplified, cabbage looper
# Method: as §1
# Bioassays on CL were conducted using a 128-well diet tray assay. One to five second instar CL larvae were placed in each well (3 mL) of the diet tray that had been previously filled with 1 mL of artificial diet to which 50 μg/cm^2 of the test compound (dissolved in 50 μL of 90:10 acetone-water mixture) had been applied (to each of eight wells) and then allowed to dry. Trays were covered with a clear self-adhesive cover, and held at 25° C., 14:10 light-dark for five to seven days. Percent mortality was recorded for the larvae in each well; activity in the eight wells was then averaged. The results are indicated in the table entitled “Table 4: Assay Results Part 2” (See Table Section).
SMILES,pest or weed control at 50 µg/cm2 [1] [%],pest or weed control at 50 µg/cm2 [2] [%],BAW Rating [1],CL Rating [2]
Cc1cc(/C=C/C(c2cc(Cl)c(Cl)c(Cl)c2)C(F)(F)F)cc(C)c1C(=O)N[C@H](C)C(=O)NCC(F)(F)F (stereo partly drawn) [FA28],50 to 100,50 to 100,–,–
C[C@@H](NC(=O)c1ccc(/C=C/C(c2ccc(Cl)c(Cl)c2)C(C)(F)F)cc1Br)C(=O)NCC(F)(F)F (stereo partly drawn) [FA29],50 to 100,50 to 100,–,–
C[C@@H](NC(=O)c1ccc(/C=C/C(c2ccc(OC(F)(F)F)c(Cl)c2)C(F)(F)F)cc1Br)C(=O)NCC(F)(F)F (stereo partly drawn) [FA30],50 to 100,50 to 100,–,–
CCc1cc(Cl)cc(C(/C=C/c2ccc(C(=O)N[C@H](C)C(=O)NCC(F)(F)F)c(Br)c2)C(F)(F)F)c1 (stereo partly drawn) [FA31],50 to 100,50 to 100,–,–
CC(C)[C@@H](NC(=O)c1ccc(/C=C/C(c2cc(Cl)c(Cl)c(Cl)c2)C(F)(F)F)cc1Br)C(=O)NCC(F)(F)F (stereo partly drawn) [FA32],50 to 100,50 to 100,–,–
CC(C)[C@@H](NC(=O)c1ccc(/C=C/C(c2cc(Cl)c(Cl)c(Cl)c2)C(F)(F)F)cc1C(F)(F)F)C(=O)NCC(F)(F)F (stereo partly drawn) [FA33],50 to 100,50 to 100,–,–
O=C(CNC(=O)c1ccc(/C=C/C(c2cccc(C(F)(F)F)c2)C(F)(F)F)cc1Br)NCC(F)(F)F (stereo not drawn) [P1],–,–,A (50-100),A (50-100)
CSc1cc(/C=C/C(c2cc(Cl)c(F)c(Cl)c2)C(F)(F)F)ccc1C(=O)NCC(=O)NCC(F)(F)F (stereo not drawn) [P12],–,–,A (50-100),A (50-100)
Fc1c(Cl)cc(C(/C=C/c2ccc(C(=S)NCC(=S)NCC(F)(F)F)c(Br)c2)C(F)(F)F)cc1Cl (stereo not drawn) [P14],–,–,B (More than 0-Less than 50),A (50-100)
Cc1cc(/C=C/C(c2cc(Cl)c(Cl)c(Cl)c2)C(F)(F)F)ccc1C(=S)NCC(=S)NCC(F)(F)F (stereo not drawn) [P15],–,–,A (50-100),A (50-100)
C[C@@H](NC(=O)c1ccc(/C=C/C(c2ccc(F)c(F)c2F)C(F)(F)F)cc1Br)C(=O)NCC(F)(F)F (stereo partly drawn) [P82],–,–,A (50-100),A (50-100)
C[C@@H](NC(=O)c1ccc(/C=C/C(c2ccc(F)c(F)c2F)C(F)(F)F)cc1C(F)(F)F)C(=O)NCC(F)(F)F (stereo partly drawn) [P84],–,–,A (50-100),A (50-100)
C[C@@H](NC(=O)c1ccc(/C=C/C(c2cc(Cl)c(Cl)cc2Cl)C(F)(F)F)cc1Br)C(=O)NCC(F)(F)F (stereo partly drawn) [P156],–,–,A (50-100),A (50-100)
C[C@@H](NC(=O)c1ccc(/C=C/C(c2cccc(OC(F)(F)F)c2)C(F)(F)F)cc1Br)C(=O)NCC(F)(F)F (stereo partly drawn) [P226],–,–,A (50-100),A (50-100)
C[C@@H](NC(=O)c1ccc(/C=C/C(c2cccc(OC(F)(F)F)c2)C(F)(F)F)cc1C(F)(F)F)C(=O)NCC(F)(F)F (stereo partly drawn) [P228],–,–,A (50-100),A (50-100)
C[C@@H](NC(=O)c1ccc(/C=C/C(c2cc(F)cc(Br)c2)C(F)(F)F)cc1C(F)(F)F)C(=O)NCC(F)(F)F (stereo partly drawn) [P300],–,–,A (50-100),A (50-100)
Cc1ccc(C(/C=C/c2ccc(C(=O)N[C@H](C)C(=O)NCC(F)(F)F)c(Br)c2)C(F)(F)F)cc1Cl (stereo partly drawn) [P442],–,–,A (50-100),A (50-100)
Cc1ccc(C(/C=C/c2ccc(C(=O)N[C@H](C)C(=O)NCC(F)(F)F)c(C(F)(F)F)c2)C(F)(F)F)cc1Cl (stereo partly drawn) [P444],–,–,A (50-100),A (50-100)
Cc1cc(C(/C=C/c2ccc(C(=O)N[C@H](C)C(=O)NCC(F)(F)F)c(Br)c2)C(F)(F)F)cc(C)c1F (stereo partly drawn) [P514],–,–,A (50-100),A (50-100)
Cc1cc(C(/C=C/c2ccc(C(=O)N[C@H](C)C(=O)NCC(F)(F)F)c(C(F)(F)F)c2)C(F)(F)F)cc(C)c1F (stereo partly drawn) [P516],–,–,A (50-100),A (50-100)
C[C@@H](NC(=O)c1ccc(/C=C/C(c2ccc(Br)c(Br)c2)C(F)(F)F)cc1Br)C(=O)NCC(F)(F)F (stereo partly drawn) [P568],–,–,A (50-100),A (50-100)
C[C@@H](NC(=O)c1ccc(/C=C/C(c2cc(Cl)cc(Br)c2)C(F)(F)F)cc1Br)C(=O)NCC(F)(F)F (stereo partly drawn) [P586],–,–,A (50-100),A (50-100)
C[C@@H](NC(=O)c1ccc(/C=C/C(c2cc(Cl)cc(Br)c2)C(F)(F)F)cc1C(F)(F)F)C(=O)NCC(F)(F)F (stereo partly drawn) [P588],–,–,A (50-100),A (50-100)

SMILES,pest or weed control at 50 µg/cm2 [1] [%],pest or weed control at 50 µg/cm2 [2] [%],BAW Rating [1],CL Rating [2]
C[C@@H](NC(=O)c1ccc(/C=C/C(c2ccc(Br)c(Br)c2)C(F)(F)F)cc1C(F)(F)F)C(=O)NCC(F)(F)F (stereo partly drawn) [P660],–,–,A (50-100),A (50-100)
C[C@@H](NC(=O)c1ccc(/C=C/C(c2ccc(Cl)c([N+](=O)[O-])c2)C(F)(F)F)cc1Br)C(=O)NCC(F)(F)F (stereo partly drawn) [P730],–,–,A (50-100),A (50-100)
C[C@@H](NC(=O)c1ccc(/C=C/C(c2ccc(Cl)c([N+](=O)[O-])c2)C(F)(F)F)cc1C(F)(F)F)C(=O)NCC(F)(F)F (stereo partly drawn) [P732],–,–,A (50-100),A (50-100)
C[C@@H](NC(=O)c1ccc(/C=C/C(c2ccc(F)c(C#N)c2)C(F)(F)F)cc1Br)C(=O)NCC(F)(F)F (stereo partly drawn) [P802],–,–,A (50-100),A (50-100)
C[C@@H](NC(=O)c1ccc(/C=C/C(c2ccc(F)c(C#N)c2)C(F)(F)F)cc1C(F)(F)F)C(=O)NCC(F)(F)F (stereo partly drawn) [P804],–,–,A (50-100),A (50-100)
Cc1cc(C(/C=C/c2ccc(C(=O)N[C@H](C)C(=O)NCC(F)(F)F)c(Br)c2)C(F)(F)F)ccc1F (stereo partly drawn) [P1090],–,–,A (50-100),A (50-100)
Cc1cc(C(/C=C/c2ccc(C(=O)N[C@H](C)C(=O)NCC(F)(F)F)c(C(F)(F)F)c2)C(F)(F)F)ccc1F (stereo partly drawn) [P1092],–,–,A (50-100),A (50-100)
O=C(CNC(=O)c1ccc(/C=C/C(c2cc(F)c(F)c(F)c2)C(F)(F)F)cc1Br)NCC(F)(F)F (stereo not drawn) [P1197],–,–,A (50-100),A (50-100)
O=C(CNC(=O)c1ccc(/C=C/C(c2cc(C(F)(F)F)cc(C(F)(F)F)c2)C(F)(F)F)cc1Br)NCC(F)(F)F (stereo not drawn) [P1269],–,–,A (50-100),A (50-100)
O=C(CNC(=O)c1ccc(/C=C/C(c2cc(F)cc(C(F)(F)F)c2)C(F)(F)F)cc1Br)NCC(F)(F)F (stereo not drawn) [P1340],–,–,A (50-100),A (50-100)
O=C(CNC(=O)c1ccc(/C=C/C(c2cc(Cl)cc(C(F)(F)F)c2)C(F)(F)F)cc1Br)NCC(F)(F)F (stereo not drawn) [P1411],–,–,A (50-100),A (50-100)
O=C(CNC(=O)c1ccc(/C=C/C(c2ccc(F)c(C(F)(F)F)c2)C(F)(F)F)cc1Br)NCC(F)(F)F (stereo not drawn) [P1483],–,–,A (50-100),A (50-100)
O=C(CNC(=O)c1ccc(/C=C/C(c2cc(Cl)c(Cl)c(Cl)c2)C(F)(F)F)cc1C(F)(F)F)NCC(F)(F)F (stereo not drawn) [P1556],–,–,A (50-100),A (50-100)
O=C(NCC(=S)NCC(F)(F)F)c1ccc(/C=C/C(c2cc(Cl)c(Cl)c(Cl)c2)C(F)(F)F)cc1Cl (stereo not drawn) [P1558],–,–,A (50-100),A (50-100)
O=C(NCC(=S)NCC(F)(F)F)c1ccc(/C=C/C(c2cc(Cl)c(Cl)c(Cl)c2)C(F)(F)F)cc1C(F)(F)F (stereo not drawn) [P1559],–,–,A (50-100),A (50-100)
Cc1cc(/C=C/C(c2cc(Cl)c(Cl)c(Cl)c2)C(F)(F)F)ccc1C(=O)NCC(=S)NCC(F)(F)F (stereo not drawn) [P1560],–,–,A (50-100),A (50-100)
Cc1cc(/C=C/C(c2cc(Cl)c(Cl)c(Cl)c2)C(F)(F)F)ccc1C(=S)NCC(=O)NCC(F)(F)F (stereo not drawn) [P1564],–,–,A (50-100),A (50-100)
O=C(CNC(=O)c1ccc(/C=C/C(c2cc(Cl)c(Cl)c(Cl)c2)C(F)(F)F)cc1C(F)(F)F)NCC(F)F (stereo not drawn) [P1566],–,–,A (50-100),A (50-100)
CC(NC(=O)CNC(=O)c1ccc(/C=C/C(c2cc(Cl)c(Cl)c(Cl)c2)C(F)(F)F)cc1Br)C(F)(F)F (stereo not drawn) [P1589],–,–,A (50-100),A (50-100)
CC(NC(=O)CNC(=O)c1ccc(/C=C/C(c2cc(Cl)c(Cl)c(Cl)c2)C(F)(F)F)cc1C(F)(F)F)C(F)(F)F (stereo not drawn) [P1591],–,–,A (50-100),A (50-100)
Cc1cc(/C=C/C(c2cc(Cl)c(Cl)c(Cl)c2)C(F)(F)F)ccc1C(=O)NCC(=O)NC(C)C(F)(F)F (stereo not drawn) [P1592],–,–,A (50-100),A (50-100)
C[C@@H](NC(=O)c1ccc(/C=C/C(c2cc(Cl)c(Cl)c(Cl)c2)C(F)(F)C(F)(F)F)cc1Br)C(=O)NCC(F)(F)F (stereo partly drawn) [P1599],–,–,A (50-100),A (50-100)
